# Measured values published in US20100292233A1, “DIHYDRO-1H-PYRROLO[1,2-A]INDOL-1-YL CARBOXYLIC ACID DERIVATIVES WHICH ACT AS S1P1 AGONISTS” (ARENA PHARMACEUTICALS, INC., priority 2008, published 2010).
# “Also recorded” adds a separate entry of the source.
# Assays:
# S1P1 receptor = target: T1, S1P1 receptor (Homo sapiens, UniProt P21453); assay: HTRF assay for direct cAMP measurement (S1P1 receptor agonism); format: cell-based; settings: recombinant CHO-K1 cells stably transfected with S1P1 receptor; decrease of cAMP
# T1 construct: expressed in transfected cells; host or cells: CHO-K1 (ATCC CCL-61)
# Excerpt: Compounds were screened for S1P1 receptor agonism (e.g., human S1P1 receptor) using the HTRF® assay for direct cAMP measurement (Gabriel et al, ASSAY and Drug Development Technologies, 1:291-303, 2003) and recombinant CHO-K1 cells stably transfected with S1P1 receptor. CHO-K1 cells were obtained from ATCC® (Manassas, Va.; Catalog #CCL-61). An agonist of the S1P1 receptor was detected in the HTRF® assay for direct cAMP measurement as a compound which decreased cAMP concentration. The HTRF® assay also was used to determine EC50 values for S1P1 receptor agonists.
# Principle of the assay: The HTRF® assay kit was purchased from Cisbio-US, Inc. (Bedford, Mass.; Catalog #62AM4PEC). The HTRF® assay supported by the kit is a competitive immunoassay between endogenous cAMP produced by the CHO-K1 cells and tracer cAMP labeled with the dye d2. The tracer binding is visualized by a monoclonal anti-cAMP antibody labeled with Cryptate. The specific signal (i.e., fluorescence resonance energy transfer, FRET) is inversely proportional to the concentration of unlabeled cAMP in the standard or sample.
# Standard curve: The fluorescence ratio (665 nm/620 nm) of the standards (0.17 to 712 nM cAMP) included in the assay was calculated and used to generate a cAMP standard curve according to the kit manufacturer's instructions. The fluorescence ratio of the samples (test compound or compound buffer) was calculated and used to deduce respective cAMP concentrations by reference to the cAMP standard curve.
# Setup of the assay: The HTRF® assay was carried out using a two-step protocol essentially according to the kit manufacturer's instructions, in 20 μl total volume per well, 384-well plate format (ProxiPlates; PerkinElmer, Fremont, Calif.; catalog #6008280). To each of the experimental wells was transferred 1500 recombinant CHO-K1 cells in 5 μl phosphate buffered saline containing calcium chloride and magnesium chloride (“PBS+”; Invitrogen, Carlsbad, Calif.; catalog #14040) supplemented with IBMX (250 μM) and rolipram (20 μM) (phosphodiesterase inhibitors; Sigma-Aldrich, St. Louis, Mo.; catalog #I5879 and catalog #R6520, respectively), followed by test compound in 5 μl compound buffer (PBS+ supplemented with […] NKH477 (water-soluble forskolin derivative; SignaGen Laboratories, Gaithersburg, Md.; catalog #PKI-NKH477-010)) or 5 μl compound buffer. The plate was then incubated at room temperature for 1 hour. To each well was then added 5 μl cAMP-d2 conjugate in lysis buffer and 5 μl Cryptate conjugate in lysis buffer according to the kit manufacturer's instructions. The plate was then further incubated at room temperature for 1 hour, after which the assay plate was read.
# Assay readout: HTRF® readout was accomplished using a PHERAstar (BMG LABTECH Inc., Durham, N.C.) or EnVision™ (PerkinElmer, Fremont, Calif.) microplate reader.
# S1P3 receptor = target: T2, S1P3 receptor (Homo sapiens, UniProt Q99500); assay: Cellular/functional Ca2+ assay for agonist activity on S1P3 receptor; format: cell-based; settings: human neuroblastoma cells; FIG. 1; done by Caliper LifeSciences
# T2 construct: a human neuroblastoma cell line which endogenously expresses S1P3 (predominantly), S1P2 and S1P5 receptors
# Protocol: Of these, S1P3 and S1P2 receptors respond to agonists, such as S1P, with an intracellular calcium increase. […] Such an assay can be performed commercially, e.g. by Caliper LifeSciences (Hopkinton, Mass.).
# Assay: Compound 2 (Enantiomer 1) was assayed for agonist activity on S1P3 receptor by Caliper LifeSciences. Human neuroblastoma cells were washed and resuspended in physiological buffer. The cells were then loaded with dye that measures intracellular calcium. S1P was used as a reference agonist. Compound 2 (Enantiomer 1) was included in the assay as a test compound. After addition of […] or Compound 2 (Enantiomer 1), fluorescence was measured at 485 nm excitation/525 nm emission every 2 sec for at least 60 sec. Calcium ionophore A23187 was then added as an internal positive control.
# BALB/c mice = assay: Mouse peripheral lymphocyte lowering (PLL) assay; format: in vivo; settings: 1 mg/kg i.v., 5 hours post dose, FIG. 2
# Protocol: Animals: Male BALB/c mice (6 to 7 weeks of age at start of study) (Charles River Laboratories, Wilmington, Mass.) were housed four per cage and maintained in a humidity—(40-60%) and temperature—(68-72° F.) controlled facility on a 12 hr:12 hr light/dark cycle (lights on at 6:30 am) with free access to food (Harlan Teklad, Orange, Calif., Rodent Diet 8604) and water. Mice were allowed one week of habituation to the animal facility before testing.
# PLL Assay: Mice were administered via i.v. one of the following: vehicle (100% PEG400) or 1 mg/kg Compound 1 in vehicle, in a total volume of 5 mL/kg. Peripheral blood samples were collected at 5 hours post dose. The mice were anesthetized with isoflurane and bled retro-orbitally (300 μL) into 1.5 ml EDTA tubes. A complete […] (CBC) (including lymphocyte count) was obtained using CELL-DYN® 3700 (Abbott Laboratories, Abbott Park, Ill.). Results are presented in FIG. 2, in which the peripheral blood lymphocyte (PBL) count is shown for the 5 hour group.
# [1] = attributed to agonism of the S1P3 receptor; cited from earlier work
# mice = settings: oral administration to mice; cited from earlier work
# [2] = short-term high dose; cited from earlier work
# C57BL/6 mice = settings: prophylactic oral administration, 1 mg/kg, three times a week; cited from earlier work
# [3] = tested on: patients with multiple sclerosis; settings: Phase II, relapsing-remitting multiple sclerosis; cited from earlier work
# T1 sequence (P21453 whole entry): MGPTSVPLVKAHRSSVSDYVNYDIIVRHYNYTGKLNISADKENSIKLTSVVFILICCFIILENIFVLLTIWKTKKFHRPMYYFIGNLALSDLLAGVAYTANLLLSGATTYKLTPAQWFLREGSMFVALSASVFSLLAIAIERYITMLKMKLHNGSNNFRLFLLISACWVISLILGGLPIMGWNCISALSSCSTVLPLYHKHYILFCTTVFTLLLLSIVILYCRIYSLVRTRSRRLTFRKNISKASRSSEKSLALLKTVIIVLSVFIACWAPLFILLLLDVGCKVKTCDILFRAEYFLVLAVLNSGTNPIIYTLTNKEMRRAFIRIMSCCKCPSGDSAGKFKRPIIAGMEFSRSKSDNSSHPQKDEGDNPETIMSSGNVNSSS
# T2 sequence (Q99500 whole entry): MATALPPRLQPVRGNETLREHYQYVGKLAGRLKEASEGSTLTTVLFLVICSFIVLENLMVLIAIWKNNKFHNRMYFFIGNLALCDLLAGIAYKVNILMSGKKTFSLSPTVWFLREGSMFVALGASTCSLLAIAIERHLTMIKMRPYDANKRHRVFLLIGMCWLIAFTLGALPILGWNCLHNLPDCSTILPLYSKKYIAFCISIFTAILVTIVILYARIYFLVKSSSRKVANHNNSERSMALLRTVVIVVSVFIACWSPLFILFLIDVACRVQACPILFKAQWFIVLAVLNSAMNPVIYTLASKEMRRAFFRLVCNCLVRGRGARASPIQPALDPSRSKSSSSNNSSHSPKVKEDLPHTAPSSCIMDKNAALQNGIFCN
structure (smiles),measurement,setting,value
"N#Cc1cc(OC(F)(F)F)cc(-c2nc(-c3ccc4c(c3)cc3n4CCC3CC(=O)O)no2)c1 (racemic) [Compound 2, 2-(7-(5-(3-Cyano-5-(trifluoromethoxy)phenyl)-1,2,4-oxadiazol-3-yl)-2,3-dihydro-1H-pyrrolo[1,2-a]indol-1-yl)acetic Acid]",EC50,S1P1 receptor,0.01 µM
"N#Cc1cc(OC(F)(F)F)cc(-c2nc(-c3ccc4c(c3)cc3n4CCC3CC(=O)O)no2)c1 (single isomer, unassigned) [Compound 2 (Enantiomer 1), 2-(7-(5-(3-Cyano-5-(trifluoromethoxy)phenyl)-1,2,4-oxadiazol-3-yl)-2,3-dihydro-1H-pyrrolo[1,2-a]indol-1-yl)acetic Acid]",agonist activity on S1P3 receptor (intracellular calcium),S1P3 receptor,substantially little to no activity; also recorded: no or substantially no agonist activity
"O=C(O)CC1CCn2c1cc1cc(-c3noc(-c4cc(C(F)(F)F)cc(C(F)(F)F)c4)n3)ccc12 (stereo not shown) [Compound 1, 2-(7-(5-(3,5-Bis(trifluoromethyl)phenyl)-1,2,4-oxadiazol-3-yl)-2,3-dihydro-1H-pyrrolo[1,2-a]indol-1-yl)acetic Acid]",peripheral lymphocyte lowering (peripheral blood lymphocyte count vs vehicle),BALB/c mice,exhibited activity for inducing peripheral lymphocyte lowering
same,EC50,S1P1 receptor,0.0072 µM
"O=C(O)CC1CCn2c1cc1cc(-c3noc(-c4ccc5c(c4)OC(F)(F)O5)n3)ccc12 (stereo not shown) [Compound 8, 2-(7-(5-(2,2-Difluorobenzo[d][1,3]dioxol-5-yl)-1,2,4-oxadiazol-3-yl)-2,3-dihydro-1H-pyrrolo[1,2-a]indol-1-yl)acetic Acid]",EC50,S1P1 receptor,0.041 µM
"N#Cc1cc(-c2nc(-c3ccc4c(c3)cc3n4CCC3CC(=O)O)no2)ccc1OCC(F)(F)F (stereo not shown) [Compound 15, 2-(7-(5-(3-Cyano-4-(2,2,2-trifluoroethoxy)phenyl)-1,2,4-oxadiazol-3-yl)-2,3-dihydro-1H-pyrrolo[1,2-a]indol-1-yl)acetic Acid]",EC50,S1P1 receptor,0.0063 µM
"O=C(O)CC1CCn2c1cc1cc(-c3noc(-c4cc(Br)cc(OC(F)(F)F)c4)n3)ccc12 (stereo not shown) [Compound 18, 2-(7-(5-(3-Bromo-5-(trifluoromethoxy)phenyl)-1,2,4-oxadiazol-3-yl)-2,3-dihydro-1H-pyrrolo[1,2-a]indol-1-yl)acetic Acid]",EC50,S1P1 receptor,0.013 µM
"CNc1ccc2oc(C[C@H]3O[C@@]4(CC[C@H]3C)O[C@H]([C@H](C)C(=O)c3ccc[nH]3)[C@H](C)C[C@H]4C)nc2c1C(=O)O [Compound A23187, reference compound]",agonist activity on S1P3 receptor (intracellular calcium),S1P3 receptor,pronounced agonist activity
CCCCCCCCc1ccc(CCC(N)(CO)CO)cc1 [FTY720],adverse event in clinical trials,[1],transient asymptomatic bradycardia
same,VEGF-induced vascular permeability,mice,potently blocked VEGF-induced vascular permeability
same,ocular infiltrates,[2],rapidly reduced ocular infiltrates
same,development of EAMG,C57BL/6 mice,completely prevented the development of experimental autoimmune myasthenia gravis (EAMG)
same,MRI lesions and clinical disease activity,[3],reduce the number of lesions detected by magnetic resonance imaging (MRI) and clinical disease activity
